PubChem BioAssay AID1794829
Inconclusive results are not listed.

Biological target: Solute carrier family 2, facilitated glucose transporter member 2 (Homo sapiens) (UniProt P11168)
Test: SLC2A2-mediated glucose transport in cells – cell-based, flow cytometry, glucose FRET sensor, HEK293 JumpIN TRex, wild type, dose response (AID 1794829)
Settings: HEK293 JumpIN SLC2A2-OE

Solute carrier family 2, facilitated glucose transporter member 2 (Homo sapiens), sequence (P11168 whole entry, looked up): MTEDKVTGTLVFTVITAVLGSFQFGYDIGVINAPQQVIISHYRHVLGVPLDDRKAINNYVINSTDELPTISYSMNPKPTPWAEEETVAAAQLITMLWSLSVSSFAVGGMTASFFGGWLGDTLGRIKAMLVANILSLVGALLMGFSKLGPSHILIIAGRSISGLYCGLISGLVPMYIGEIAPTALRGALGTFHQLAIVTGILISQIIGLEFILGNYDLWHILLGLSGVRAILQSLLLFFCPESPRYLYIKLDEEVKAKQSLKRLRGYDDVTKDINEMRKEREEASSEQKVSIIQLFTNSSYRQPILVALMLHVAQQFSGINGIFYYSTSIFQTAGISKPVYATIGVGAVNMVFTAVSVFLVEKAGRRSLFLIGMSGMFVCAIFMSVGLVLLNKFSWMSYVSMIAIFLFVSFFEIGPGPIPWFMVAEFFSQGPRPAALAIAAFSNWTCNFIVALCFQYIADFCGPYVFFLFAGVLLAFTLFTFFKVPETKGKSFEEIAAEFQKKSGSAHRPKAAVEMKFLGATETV

OC[C@H]1OC(O)[C@H](O)[C@@H](O)[C@@H]1O (stereo partly specified)
EC50 (substrate-induced FRET increase): 710 µM
